From patent US6630496B1, “Inhibitors of phospholipase enzymes” (Genetics Institute LLC, priority 1996, dated 2003)
Several values for one entry are separate records, joined by “and”; a condition that tells them apart may be missing. Equal entries are not always repeated. Where two headings read alike, the source gives them in different places. One block for each compound: values may come before it.

What was measured:
cPLA2 [1] = target: T1, cPLA2 (Homo sapiens, UniProt P47712); assay: Soluble substrate assay (LysoPC); type: biochemical
T1 sequence (P47712 1-749): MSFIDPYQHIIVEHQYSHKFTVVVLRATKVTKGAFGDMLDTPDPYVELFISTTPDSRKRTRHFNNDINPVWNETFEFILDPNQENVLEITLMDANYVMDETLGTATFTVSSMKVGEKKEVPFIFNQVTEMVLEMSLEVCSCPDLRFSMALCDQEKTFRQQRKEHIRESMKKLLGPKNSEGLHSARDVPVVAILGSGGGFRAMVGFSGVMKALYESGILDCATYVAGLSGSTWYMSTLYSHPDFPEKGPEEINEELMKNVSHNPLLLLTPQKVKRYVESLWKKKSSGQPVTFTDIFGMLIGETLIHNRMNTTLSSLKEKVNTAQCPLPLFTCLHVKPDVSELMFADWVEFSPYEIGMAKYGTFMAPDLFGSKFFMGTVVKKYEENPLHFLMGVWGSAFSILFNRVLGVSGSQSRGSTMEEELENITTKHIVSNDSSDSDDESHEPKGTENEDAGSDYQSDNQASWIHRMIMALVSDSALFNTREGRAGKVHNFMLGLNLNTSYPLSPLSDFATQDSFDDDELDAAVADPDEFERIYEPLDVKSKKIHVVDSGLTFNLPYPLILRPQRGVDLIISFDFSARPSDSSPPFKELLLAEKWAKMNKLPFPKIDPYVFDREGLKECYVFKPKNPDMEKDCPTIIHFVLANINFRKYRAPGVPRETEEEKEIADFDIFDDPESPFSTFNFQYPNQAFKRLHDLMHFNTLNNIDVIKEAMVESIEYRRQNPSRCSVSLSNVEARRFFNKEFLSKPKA
Method: (b) Soluble Substrate Assay (LysoPC)
(§1) The lipid was resuspended by vortexing 80 mM Hepes pH 7.5, 1 mM EDTA (1.2×final concentration). A typical assay consisted of lipid suspension (85 μl) to which was added consecutively the inhibitor (5 μl in DMSO) and cPLA2, 200 ng in 80 mM Hepes pH 7.5, 2 mM DTT and […]. This assay was conducted by either the manual assay or automated assay protocol described below.

[2] = tested on: carrageenan-induced footpad edema; assay: Rat carrageenan-induced footpad edema test; type: in vivo; details: iv, read-out: % inhibition of rat carrageenan-induced footpad edema
Method: Compounds of the present invention were also tested for in vivo activity in a rat paw edema test according to the procedure described in Example 89.
Rat Carrageenan-Induced Footpad Edema Test
Each compound was suspended in 0.3 ml absolute ethanol, 0.1 ml Tween-80 and 2.0 ml Dulbecco's PBS (without calcium or magnesium). To this mixture, 0.1 ml 1N NaOH was added. After solution was complete, additional amounts of PBS were added to adjust the concentration to 1 mg/ml. All comounds remained in solution. Compounds were administered i.v. in a volumne of 5 ml/kg to male Sprague Dawley rats at the same time that edema was induced by injection of 0.05 ml of 1% Type IV carrageenan into the hind footpad. Footpad volume was measured before dosing with compound and 3 hours after dosing with carageenan.

cPLA2 [3] = target: T1, cPLA2; assay: Coumarine assay (7-hydroxycoumarinyl 6-heptenoate hydrolysis); type: biochemical
Method: (§2) 7-hydroxycoumarinyl 6-heptenoate was used as a monomeric substrate for cPLA2 as reported previously (Huang, Z. et al., 1994, Analytical Biochemistry 222, 110-115). Inhibitors were mixed with 200 μL assay buffer (80 mM Hepes, pH 7.5, 1 mM EDTA) containing 60 μM 7-hydroxycoumarinyl 6-heptenoate. The reaction was initiated by adding 4 μg cPLA2 in 50 μL assay buffer. Hydrolysis of the 7-hydroxycoumarinyl 6-heptenoate ester was monitored in a fluorometer by exciting at 360 nm and monitoring emission at 460 nm. Enzyme activity is proportional to the increasein emission at 460 nm per minute. In the presence of a cPLA2 inhibitor, the rate of increase is less.

cPLA2 [4] = target: T1, cPLA2; assay: Activity assay of Example 136 (Table VIII; sub-assay not stated); type: biochemical; details: for IC50: concentration paired with 50 percent inhibition, read-out: CONCENTRATION (micromolar) @ PERCENT INHIBITION 50
Method: Activity data for the compounds of Examples 88-135 are reported in Table VIII (assay described in Example 136).
1-palmitoyl-2-V^14C] arachidonyl phosphotidylcholine (58 mCi/mmol) (final concentration 6 μM) and 1,2-dioleyolglycerol (final concentration 3 μM) were mixed and dried under a stream of nitrogen. To the lipids was added 50 mM Hepes pH 7.5 (2×final concentration of lipids) and the suspension was sonicated for 3 min. at 4° C. To the suspension was added 50 mM Hepes pH 7.5, 300 mM NaCl, 2 mM DTT, 2 mM CaCl2 and 2 mg/ml bovine serum albumin (BSA) (Sigma A7511) (1.2×final concentration of lipids). A typical assay consisted of the lipid mixture (85 μl) to which was added consecutively, the inhibitor (5 μl in DMSO) and cPLA2, 10 ng for an automated system or 1 ng for a manual assay, in 10 μl of the BSA buffer. This assay was conducted by either the manual assay or automated assay protocol described below.
as §1, with “1-[^14C]-palmitoyl-2-hydroxyphosphotidyl-choline (57 mCi/mmol) (final concentration 4.4 μM) was dried under a stream of nitrogen. The” for “The”
RBL-2H3 cells were routinely cultured as 37° C. in a 5% CO2 atmosphere in minimal essential medium containing nonessential amino acids and 12% fetal calf serum. The day before the experiment, cells were seeded into spinner flasks at 3×10^5 cells/ml and 100 ng/ml DNP specific-IgE was added. After 20 hrs, the cells were harvested by centrifugation and washed once in serum-free minimal essential media, and resuspended to 2×10^6 cells/ml in serum free media. The cells were then preincubated with either inhibitor in DMSO (1% v/v) or DMSO (1% v/v) for 15 min at 37° C. followed by stimulation with DNP-BSA (300 ng/ml). After 6 min, the cells were removed by centrifugation, and the supernatant was assayed for PGD2 content in accordance with known methods.
as §2

[5] = NA = inhibitory activity not detected, read-out: IC50 (μM) Lyso PC
[6] = 1 mg/ml, 5 ml/kg, male Sprague Dawley rats, footpad volume 3 hours after carrageenan
[7] = 60 μM 7-hydroxycoumarinyl 6-heptenoate, read-out: IC50 (μM) Coumarine

Structure (SMILES): O=C(O)c1cccc(NC(=O)c2cc3cc(OCc4ccccc4)ccc3n2Cc2ccc(COc3cc(C(F)(F)F)cc(C(F)(F)F)c3)cc2)c1 [Example 8]
IC50 (cPLA2 [1]): 0.11 µM
inhibition in vivo at 1000 µg/mL, 5 mg/kg ([2]; 3 h): 29%
IC50 (cPLA2 [3]): 3.8 µM

Structure (SMILES): O=C(O)c1cc(NC(=O)c2cc3cc(OCc4ccccc4)ccc3n2Cc2ccc(C(F)(F)F)cc2C(F)(F)F)ccc1Oc1ccc(Cl)nc1 [Example 10]
IC50 (cPLA2 [1]): 0.33 µM
inhibition in vivo at 1000 µg/mL, 5 mg/kg ([2]; 3 h): 8.9%
IC50 (cPLA2 [3]): 28 µM

Structure (SMILES): CCC(C)(C)c1ccc(OCC(=O)N2c3ccc(OCc4ccccc4)cc3CC2CSCC(=O)Nc2cccc(C(=O)O)c2)c(C(C)(C)CC)c1 (stereo not shown) [Example 17, 3-(2-(-5-Benzyloxy-1-(2,4-bis(1,1-dimethy)propyl)phenoxyacetyl)indolinyl)methylthioacetamidobenzoic Acid]
IC50 (cPLA2 [1]; [5]): 0.32 µM
inhibition in vivo at 1000 µg/mL, 5 mg/kg [2, 6]: 29.3%
IC50 (cPLA2 [3]; [7]): 6 µM

Structure (SMILES): O=C(O)c1ccccc1SCC1Cc2cc(OCc3ccccc3)ccc2N1Cc1ccc2ccccc2c1 (stereo not shown) [Example 76]
inhibition in vivo at 1000 µg/mL, 5 mg/kg [2, 6]: 8.2%
IC50 (cPLA2 [3]; [7]): 4.5 µM

Structure (SMILES): O=C(O)c1ccccc1SCC1Cc2cc(OCc3ccccc3)ccc2N1Cc1ccc(COc2cc(C(F)(F)F)cc(C(F)(F)F)c2)cc1 (stereo not shown) [Example 77]
inhibition in vivo at 1000 µg/mL, 5 mg/kg [2, 6]: 13%
IC50 (cPLA2 [3]; [7]): 2.5 µM

Structure (SMILES): CS(=O)(=O)NC(=O)C1Cc2ccccc2N1Cc1ccc(C(F)(F)F)cc1C(F)(F)F (stereo not shown) [Example 84, N-Methylsulfonyl-2-(1-(2,4-bis(trifluoromethyl)benzyl)indolinyl)carboxamide]
IC50 (cPLA2 [1]; [5]): 23 µM
IC50 (cPLA2 [3]; [7]): > 50 µM

Structure (SMILES): O=C(NS(=O)(=O)c1ccccc1)C1Cc2ccccc2N1Cc1ccc(C(F)(F)F)cc1C(F)(F)F (stereo not shown) [Example 85]
IC50 (cPLA2 [1]; [5]): 21 µM
IC50 (cPLA2 [3]; [7]): > 50 µM

Structure (SMILES): CC(=O)c1c(CSCC(=O)O)n(Cc2ccc(C(=O)c3nc4ccccc4s3)cc2)c2ccc(OCc3ccccc3)cc12 [Example 133]
IC50 (cPLA2 [4]): 8.5 µM

Structure (SMILES): CC(=O)c1c(CSc2ccccc2C(=O)O)n(Cc2ccc(C(=O)c3nc4ccccc4s3)cc2)c2ccc(OCc3ccccc3)cc12 [Example 134]
IC50 (cPLA2 [4]): 3.5 µM

Structure (SMILES): CC(=O)c1c(COc2ccc(C(=O)O)cc2)n(Cc2ccc(C(=O)c3nc4ccccc4s3)cc2)c2ccc(OCc3ccccc3)cc12 [Example 135]
IC50 (cPLA2 [4]): 9 µM

The remaining lines, values ahead:

IC50 (cPLA2 [4]): 3 µM
Structure (SMILES): O=C(O)c1ccc(CN2C(=O)S/C(=C/c3cc4cc(OCc5ccccc5)ccc4n3Cc3ccc(COc4cc(C(F)(F)F)cc(C(F)(F)F)c4)cc3)C2=O)cc1 [Example 88, 4-[(5-{(E)[5-(Benzyloxy)-1-(4-{[3,5-bis(trifluoromethyl)phenoxyl]methyl}benzyl)-1H-indol-2-yl]methylidene}-2,4-dioxo-1,3-thiazolan-3-yl)methyl]benzoic Acid]

PERCENT INHIBITION @ CONCENTRATION 12.5 micromolar (cPLA2 [4]; 12.5 micromolar): 55%
IC50 (cPLA2 [4]): 12.5 µM
Structure (SMILES): O=C1NC(=O)/C(=C\c2cc3cc(OCc4ccccc4)ccc3n2Cc2ccc(Cc3ccccc3)cc2)S1 [Example 93, 5-{(E)-[1-(4-Benzylbenzyl)-5-(benzyloxy)-1H-indol-2-yl]methylidene}-1,3-thiazolane-2,4-dione]

IC50 (cPLA2 [4]): 5 µM
Structure (SMILES): O=C(O)CN1C(=O)S/C(=C/c2cc3cc(OCc4ccccc4)ccc3n2Cc2ccc(COc3cc(C(F)(F)F)cc(C(F)(F)F)c3)cc2)C1=O [Example 96, 2-(5-{(E)-[5-(Benzyloxy)-1-(4-{[3,5-bis(trifluoromethyl)phenoxy]methyl}benzyl)-1H-indol-2-yl]methylidene}-2,4-dioxo-1,3-thiazolan-3-yl)acetic Acid]

IC50 (cPLA2 [4]): 4.5 µM
Structure (SMILES): O=C(O)c1ccc(CN2C(=O)S/C(=C/c3cc4cc(OCc5ccccc5)ccc4n3Cc3ccc(Cl)cc3)C2=O)cc1 [Example 97, 4-[(5-{(E)-[5-(Benzyloxy)-1-(4-chlorobenzyl)-1H-indol-2yl]methylidene}2,4-dioxo-1,3-thiazolan-3-yl)methyl]benzoic Acid]

IC50 (cPLA2 [4]): 10 µM
Structure (SMILES): O=C1NC(=S)S/C1=C/c1cc2cc(OCc3ccccc3)ccc2n1Cc1ccc(C(F)(F)F)cc1C(F)(F)F [Example 101, 5-((E)-{5-(Benzyloxy)-1-[2,4-bis(trifluoromethyl)benzyl]-1H-indol-2-yl}methylidene)-2-thioxo-1,3-thiazolan-4-one]

IC50 (cPLA2 [4]): 3.8 µM
Structure (SMILES): O=C(O)c1ccc(CN2C(=O)/C(=C\c3cc4cc(OCc5ccccc5)ccc4n3Cc3ccc(C(F)(F)F)cc3C(F)(F)F)SC2=S)cc1 [Example 107, 4-{[5-((E)-{5-(Benzyloxy)-1-[2,4-bis(trifluoromethyl)benzyl]-1H-indol-2-yl}methylidene)-4-oxo-2-thioxo-1,3-thiazolan-3-yl]methyl}benzoic Acid]

IC50 (cPLA2 [4]): 50 µM
Structure (SMILES): O=C(O)c1cc2cc(-c3cc4ccccc4o3)ccc2n1Cc1ccccc1 [Example 110, 5-(1-Benzofuran-2-yl)-1-benzyl-1H-indole-2-carboxylic Acid]

IC50 (cPLA2 [4]): 13 µM
Structure (SMILES): O=C(O)c1cc2cc(-c3ccc(F)cc3)ccc2n1Cc1ccccc1 [Example 111, 1-Benzyl-5-(4-fluorophenyl)-1H-indole-2-carboxylic Acid]

PERCENT INHIBITION @ CONCENTRATION 25 micromolar (cPLA2 [4]; 25 micromolar): 32%
PERCENT INHIBITION @ CONCENTRATION 50 micromolar (cPLA2 [4]): 46%
Structure (SMILES): COc1cccc(-c2ccc3c(c2)cc(C(=O)O)n3Cc2ccccc2)c1 [Example 112, 1-Benzyl-5-(3-methoxyphenyl)-1H-indole-2-carboxylic Acid]

IC50 (cPLA2 [4]): 170 µM
Structure (SMILES): O=C(O)c1cc2cc(-c3ccccc3)ccc2n1Cc1ccccc1 [Example 113, 1-Benzyl-5-phenyl-1H-indole-2-carboxylic Acid]

PERCENT INHIBITION @ CONCENTRATION 50 micromolar (cPLA2 [4]): 31% and 25%
Structure (SMILES): O=C(O)c1cc(NC(=O)c2cc3cc(OCc4ccccc4)ccc3n2Cc2ccccc2)cc(C(=O)O)c1 [Example 123, 5-({[1-Benzyl-5-(benzyloxy)-1H-indol-2-yl]carbonyl}amino)isophthalic Acid]

IC50 (cPLA2 [4]): 23 µM
Structure (SMILES): O=C(O)/C=C/c1cc2cc(OCc3ccccc3)ccc2n1Cc1ccc(C(F)(F)F)cc1C(F)(F)F [Example 125]
